From US20250295798A1, “LIGAND-DRUG CONJUGATE OF EXATECAN ANALOGUE, AND MEDICAL USE THEREOF” (BeiGene Switzerland GmbH, priority 2022, published 2025)
Where a name gives a salt, the structure may show the parent alone.

Columns and labels:
A375 = test: Compounds cellular killing in A375; assay type: cell-based, human; details: for EC50 / Emax / Emax (%): A375, 6 days, Cell Titer-Glo; for potency compared with compound 1-A and 1-C: Table 18, A375 and Calu-6
Protocol: (§1) Seeding cells A375 (1E3/well) or Calu-6 (2E3/well) into 96-well plate (Greiner: 655090), 100 ul/well. Incubation at 37° C., 5% CO2, overnight.
(§2) Adding the fresh growth-medium containing the varying concentrations of compounds, 50 ul/well.
(§3) Incubation at 37° C., 5% CO2, 6 days.
(§4) The cell viability detected by Cell Titer-Glo (Promega, G7573). Add 70 µL/well of CellTiter-Glo® Reagent in each well.
(§5) Allow the plates to incubate at room temperature for 10 minutes to stabilize luminescent signal.
(§6) Analyze with Microplate Reader.
(§7) Seeding cells A375 ([…] or Calu-6 (2E3/well) into 96-well plate (Greiner: 655090), 100 ul/well. Incubation at 37° C., […], overnight.

Calu-6 = test: Compounds cellular killing in Calu-6; assay type: cell-based, human; details: Calu-6, 6 days, Cell Titer-Glo
Protocol: as §1, §2, §3, §4, §5, §6, §7

| SMILES | Emax (A375; Homo sapiens, A-375, […]) [%] | Emax (Calu-6; Homo sapiens, Calu-6, […]) [%] | EC50 (Calu-6; Homo sapiens, Calu-6, […]) [nM] | EC50 (A375; Homo sapiens, A-375, […]) [nM] | also measured |
| --- | --- | --- | --- | --- | --- |
| CC[C@@]1(O)C(=O)OCc2c1cc1n(c2=O)Cc2c-1nc1cc(F)c(C)c3c1c2[C@@H](NC(=O)C1CCCC1O)CC3 (single isomer, unassigned) [Example 2-9] | 100 | 98.6 | – | – | EC50 (A375): 1.9 nM; EC50 (Calu-6): 0.7 nM |
| CC[C@@]1(O)C(=O)OCc2c1cc1n(c2=O)Cc2c-1nc1cc(F)c(C)c3c1c2[C@@H](NC(=O)C1CCCC1O)CC3 (single isomer, unassigned) [Example 2-10] | – | – | – | – | EC50 (A375): 0.8 nM; Emax (%) (A375): 99.9%; EC50 (Calu-6): 0.2 nM; Emax (%) (Calu-6): 98.9% |
| CC[C@@]1(O)C(=O)OCc2c1cc1n(c2=O)Cc2c-1nc1cc(F)c(C)c3c1c2C(OCCO)CC3 (single isomer, unassigned) [Example 2-45] | – | 99.2 | – | – | EC50 (A375; Homo sapiens, A-375): 1.3 nM; Emax (A375; Homo sapiens, A-375): 100%; EC50 (Calu-6; Homo sapiens): 0.7 nM |
| CC[C@@]1(O)C(=O)OCc2c1cc1n(c2=O)Cc2c-1nc1cc(F)c(C)c3c1c2[C@@H](N1CCCC1CO)CC3 (single isomer, unassigned) [Example 2-49] | 99.9 | 99.1 | 0.2 | – | EC50 (A375): 0.7 nM |
| CC[C@@]1(O)C(=O)OCc2c1cc1n(c2=O)Cc2c-1nc1cc(F)c(C)c3c1c2[C@@H](N1CCCC1CO)CC3 (single isomer, unassigned) [Example 2-50] | – | – | – | – | EC50 (A375): 0.3 nM; Emax (%) (A375): 99.5%; Emax (%) (Calu-6): 99.2% |
| CC[C@@]1(O)C(=O)OCc2c1cc1n(c2=O)Cc2c-1nc1cc(F)c(C)c3c1c2C(C(=O)NCCO)CC3 (single isomer, unassigned) [Example 2-52] | 98.9 | 97.3 | 6 | 16.1 | – |
| CC[C@@]1(O)C(=O)OCc2c1cc1n(c2=O)Cc2c-1nc1cc(F)c(C)c3c1c2[C@@H](N1CCC1CO)CC3 (single isomer, unassigned) [Example 2-56] | – | – | – | – | EC50 (A375): 0.9 nM; Emax (%) (A375): 100.0%; EC50 (Calu-6): 0.2 nM; Emax (%) (Calu-6): 99.0% |
| CC[C@@]1(O)C(=O)OCc2c1cc1n(c2=O)Cc2c-1nc1cc(F)c(C)c3c1c2C(N1CCC1CO)CC3 (single isomer, unassigned) [Example 2-57] | 100 | 99.3 | – | – | EC50 (A375): 1.9 nM; EC50 (Calu-6): 0.7 nM |
| CC[C@@]1(O)C(=O)OCc2c1cc1n(c2=O)Cc2c-1nc1cc3c(c4c1c2C(CCCO)CC4)OCO3 (single isomer, unassigned) [Example 2-59] | – | 98.4 | – | – | EC50 (A375; Homo sapiens, A-375): 0.8 nM; Emax (A375; Homo sapiens, A-375): 100%; potency compared with compound 1-A and 1-C (A375): higher potency than compound 1-A and 1-C; EC50 (Calu-6; Homo sapiens): 0.2 nM |
| CC[C@@]1(O)C(=O)OCc2c1cc1n(c2=O)Cc2c-1nc1cc3c(c4c1c2C(CCCO)CC4)OCO3 (single isomer, unassigned) [Example 2-60] | – | – | – | – | EC50 (A375): 0.8 nM; Emax (%) (A375): 100.0%; potency compared with compound 1-A and 1-C (A375): higher potency than compound 1-A and 1-C; EC50 (Calu-6): 0.2 nM; Emax (%) (Calu-6): 98.2% |
| CC[C@@]1(O)C(=O)OCc2c1cc1n(c2=O)Cc2c-1nc1cc(F)c(OC)c3c1c2[C@@H](N)CC3 [Example 1-1, (1S,9S)-1-amino-9-ethyl-5-fluoro-9-hydroxy-4-methoxy-1,2,3,9,12,15-hexahydro-10H,13H-benzo[de]pyrano[3′,4′:6,7]indolizino[1,2-b]quinoline-10,13-dione methanesulfonate] | 100 | 99.6 | 0.9 | 2 | – |
| CC[C@@]1(O)C(=O)OCc2c1cc1n(c2=O)Cc2c-1nc1cc(F)c(O)c3c1c2[C@@H](N)CC3 [Example 1-3, (1S,9S)-1-amino-9-ethyl-5-fluoro-4,9-dihydroxy-1,2,3,9,12,15-hexahydro-10H,13H-benzo[de]pyrano[3′,4′:6,7]indolizino[1,2-b]quinoline-10,13-dione methanesulfonate] | 98.4 | 98.8 | 38.5 | 130 | – |
| CC[C@@]1(O)C(=O)OCc2c1cc1n(c2=O)Cc2c-1nc1cc(Cl)c(C)c3c1c2[C@@H](N)CC3 [Example 1-8, (1S,9S)-1-amino-5-chloro-9-ethyl-9-hydroxy-4-methyl-1,2,3,9,12,15-hexahydro-10H,13H-benzo[de]pyrano[3′,4′:6,7]indolizino[1,2-b]quinoline-10,13-dione] | 98.8 | 98.8 | 0.5 | 1.2 | – |
| CC[C@@]1(O)C(=O)OCc2c1cc1n(c2=O)Cc2c-1nc1cc3c(c4c1c2[C@@H](N)CC4)OCO3 [Example 1-10, (1S,10S)-1-amino-10-ethyl-10-hydroxy-1,2,3,10,13,16-hexahydro-11H,14H-benzo[de][1,3]dioxolo[4,5-g]pyrano[3′,4′:6,7]indolizino[1,2-b]quinoline-11,14-dione] | – | 97.7 | – | – | EC50 (A375; Homo sapiens, A-375): 0.4 nM; Emax (A375; Homo sapiens, A-375): 97.7%; EC50 (Calu-6; Homo sapiens): 0.3 nM |
| CC[C@@]1(O)C(=O)OCc2c1cc1n(c2=O)Cc2c-1nc1ccc(F)c3c1c2[C@@H](N)CC3 [Example 1-12, (1S,9S)-1-amino-9-ethyl-4-fluoro-9-hydroxy-1,2,3,9,12,15-hexahydro-10H,13H-benzo[de]pyrano[3′,4′:6,7]indolizino[1,2-b]quinoline-10,13-dione] | 99.8 | 99.5 | 2.1 | 5.5 | – |
| CC[C@@]1(O)C(=O)OCc2c1cc1n(c2=O)Cc2c-1nc1cc(Cl)cc3c1c2[C@@H](N)CC3 [Example 1-14, (1S,9S)-1-amino-5-chloro-9-ethyl-9-hydroxy-1,2,3,9,12,15-hexahydro-10H,13H-benzo[de]pyrano[3′,4′:6,7]indolizino[1,2-b]quinoline-10,13-dione] | – | 98.8 | – | – | EC50 (A375; Homo sapiens, A-375): 2.5 nM; Emax (A375; Homo sapiens, A-375): 100%; EC50 (Calu-6; Homo sapiens): 0.8 nM |
| CC[C@@]1(O)C(=O)OCc2c1cc1n(c2=O)Cc2c-1nc1cc3c(c4c1c2[C@@H](N)CC4)OC(F)(F)O3 [Example 1-16, (1S,10S)-1-amino-10-ethyl-5,5-difluoro-10-hydroxy-1,2,3,10,13,16-hexahydro-11H,14H-benzo[de][1,3]dioxolo[4,5-g]pyrano[3′,4′:6,7]indolizino[1,2-b]quinoline-11,14-dione 2,2,2-trifluoroacetate salt] | 98.5 | 98.5 | 0.6 | 1.6 | – |
| CC[C@@]1(O)C(=O)OCc2c1cc1n(c2=O)Cc2c-1nc1cc(O)cc3c1c2C(NC(C)=O)CC3 (stereo partly drawn) [Example 1-18, N-((9S)-9-ethyl-5,9-dihydroxy-10,13-dioxo-2,3,9,10,13,15-hexahydro-1H,12H-benzo[de]pyrano[3′,4′:6,7]indolizino[1,2-b]quinolin-1-yl)acetamide] | 99.9 | 99.5 | 3.1 | 5.3 | – |
| CC[C@@]1(O)C(=O)OCc2c1cc1n(c2=O)Cc2c-1nc1cc(F)cc3c1c2[C@@H](N)CC3 [Example 1-22, (1S,9S)-1-amino-9-ethyl-5-fluoro-9-hydroxy-1,2,3,9,12,15-hexahydro-10H,13H-benzo[de]pyrano[3′,4′:6,7]indolizino[1,2-b]quinoline-10,13-dione methanesulfonate] | 100 | 99.2 | 0.6 | 1.4 | – |
| CC[C@@]1(O)C(=O)OCc2c1cc1n(c2=O)Cc2c-1nc1cc(O)cc3c1c2[C@@H](N)CC3 [Example 1-24, (1S,9S)-1-amino-9-ethyl-5,9-dihydroxy-1,2,3,9,12,15-hexahydro-10H,13H-benzo[de]pyrano[3′,4′:6,7]indolizino[1,2-b]quinoline-10,13-dione methanesulfonate] | 96 | 94.4 | 118 | 112 | – |
| CC[C@@]1(O)C(=O)OCc2c1cc1n(c2=O)Cc2c-1nc1cc(F)c(Cl)c3c1c2[C@@H](N)CC3 [Example 1-26, ((1S,9S)-1-amino-4-chloro-9-ethyl-5-fluoro-9-hydroxy-1,2,3,9,12,15-hexahydro-10H,13H-benzo[de]pyrano[3′,4′:6,7]indolizino[1,2-b]quinoline-10,13-dione 2,2,2-trifluoroacetate salt] | 98.1 | 98.1 | 0.3 | 1 | – |
| CC[C@@]1(O)C(=O)OCc2c1cc1n(c2=O)Cc2c-1nc1cc(F)c(C)c3c1c2[C@@H](NC(=O)CO)CC3 [Example 1-A, reference compound] | 98.9 | 98.9 | 1 | 2.2 | – |
| CCc1c2c(nc3ccc(O)cc13)-c1cc3c(c(=O)n1C2)COC(=O)[C@]3(O)CC [Example 1-C, reference compound] | – | – | – | – | EC50 (A375; Homo sapiens, A-375): 4.3 nM; Emax (A375; Homo sapiens, A-375): 99.5%; EC50 (Calu-6; Homo sapiens): 2.6 nM |
| CC[C@@]1(O)C(=O)OCc2c1cc1n(c2=O)Cc2c-1nc1cc(C)c(C)c3c1c2[C@@H](NC(=O)CO)CC3 [Example 2-1, N-((1S,9S)-9-ethyl-9-hydroxy-4,5-dimethyl-10,13-dioxo-2,3,9,10,13,15-hexahydro-1H,12H-benzo[de]pyrano[3′,4′:6,7]indolizino[1,2-b]quinolin-1-yl)-2-hydroxyacetamide] | 98 | 98 | 10 | 23 | – |
| CC[C@@]1(O)C(=O)OCc2c1cc1n(c2=O)Cc2c-1nc1cc(F)c(C)c3c1c2[C@@H](NC(=O)C1CCC1CO)CC3 (stereo partly drawn) [Example 2-2, N-((1S,9S)-9-ethyl-5-fluoro-9-hydroxy-4-methyl-10,13-dioxo-2,3,9,10,13,15-hexahydro-1H,12H-benzo[de]pyrano[3′,4′:6,7]indolizino[1,2-b]quinolin-1-yl)-2-(hydroxymethyl)cyclobutane-1-carboxamide] | 99.9 | 98.7 | 1.3 | 5.2 | – |
